Among the data in ChEMBL document CHEMBL1201862, “PubChem BioAssay data set” (2004) are AC50, CC50 and EC50 values, retold here.

Active and inactive are the calls of the source. Some results are limits rather than exact numbers.

For orientation: AC50 means the concentration at which the activity in the assay is half-maximal. By EC50 is commonly meant the concentration giving half of the maximal effect.

Among the targets are Cytochrome P450 2C9 (Homo sapiens, UniProt P11712); Cytochrome P450 2D6 (Homo sapiens, UniProt P10635); Cytochrome P450 3A4 (Homo sapiens, UniProt P08684).
Series [1] addresses FAD-linked sulfhydryl oxidase ALR (Homo sapiens, UniProt P55789). Briefly: inhibitors of human ALR sulfhydryl oxidase, dose response, biochemical, H2O2 detection, luminescence, cherry-pick (AID 493248).
The target of the next series is Cytochrome P450 2C19 (Homo sapiens, UniProt P33261). Briefly: Cytochrome panel assay with activity outcomes. Panel member name: p450-cyp2c19 Compounds with AC50 equal or less than 10 uM are considered active. The series is classed as functional.
Cytochrome P450 2C19, sequence (P33261 whole entry): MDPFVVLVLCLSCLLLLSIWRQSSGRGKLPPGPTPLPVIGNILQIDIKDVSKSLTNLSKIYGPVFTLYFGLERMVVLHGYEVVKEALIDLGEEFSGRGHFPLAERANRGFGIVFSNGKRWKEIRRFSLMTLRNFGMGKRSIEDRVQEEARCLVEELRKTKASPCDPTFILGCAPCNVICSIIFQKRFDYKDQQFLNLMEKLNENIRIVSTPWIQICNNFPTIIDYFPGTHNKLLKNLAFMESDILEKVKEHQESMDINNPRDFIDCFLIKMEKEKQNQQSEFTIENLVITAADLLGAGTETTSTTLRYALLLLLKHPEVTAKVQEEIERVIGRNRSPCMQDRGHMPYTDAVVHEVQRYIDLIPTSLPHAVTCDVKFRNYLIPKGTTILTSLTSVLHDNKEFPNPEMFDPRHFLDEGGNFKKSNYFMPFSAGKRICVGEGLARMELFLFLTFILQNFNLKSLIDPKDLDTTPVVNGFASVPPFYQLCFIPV
Series [2] in a line: microbe, parasite or virus in culture. The series is classed as functional. The conditions noted are these: Mycobacterium tuberculosis.
Series [3] deals with T1, Heat shock factor protein 1 (Mus musculus, UniProt P38532).
T1 sequence (P38532 whole entry): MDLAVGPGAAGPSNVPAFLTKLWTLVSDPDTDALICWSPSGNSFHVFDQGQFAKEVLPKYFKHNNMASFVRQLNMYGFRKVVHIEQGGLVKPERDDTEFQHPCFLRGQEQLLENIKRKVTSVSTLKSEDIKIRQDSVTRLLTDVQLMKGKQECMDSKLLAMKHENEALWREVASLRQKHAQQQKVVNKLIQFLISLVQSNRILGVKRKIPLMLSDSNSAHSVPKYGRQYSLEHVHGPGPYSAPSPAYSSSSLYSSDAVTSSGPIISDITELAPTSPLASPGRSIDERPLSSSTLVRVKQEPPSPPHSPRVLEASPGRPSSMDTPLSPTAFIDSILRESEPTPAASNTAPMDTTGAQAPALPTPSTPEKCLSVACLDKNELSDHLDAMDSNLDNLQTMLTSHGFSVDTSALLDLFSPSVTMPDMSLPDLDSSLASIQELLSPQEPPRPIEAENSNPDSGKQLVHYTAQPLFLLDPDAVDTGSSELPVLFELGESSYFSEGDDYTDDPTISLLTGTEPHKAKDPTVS
In words: HSF1 potentiators in luciferase reporter cells, confirmation, cell-based, NIH3T3, luminescence, dose retest (AID 435004).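 Further: stress induced by proteasome inhibitor MG132 added 30 min after compound; luciferase reporter driven by HSF1 response element in NIH3T3 cells; actives raise luminescence as potentiators of the MG132 stress response.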 The series is classed as functional. Background: A reporter such as luciferase makes a cellular process visible.

A further series concerns the target T2, Cytochrome P450 1A2 (Homo sapiens, UniProt P05177).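 Further: PubChem cytochrome P450 panel assay, CYP1A2 panel member.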
T2 sequence (P05177 whole entry): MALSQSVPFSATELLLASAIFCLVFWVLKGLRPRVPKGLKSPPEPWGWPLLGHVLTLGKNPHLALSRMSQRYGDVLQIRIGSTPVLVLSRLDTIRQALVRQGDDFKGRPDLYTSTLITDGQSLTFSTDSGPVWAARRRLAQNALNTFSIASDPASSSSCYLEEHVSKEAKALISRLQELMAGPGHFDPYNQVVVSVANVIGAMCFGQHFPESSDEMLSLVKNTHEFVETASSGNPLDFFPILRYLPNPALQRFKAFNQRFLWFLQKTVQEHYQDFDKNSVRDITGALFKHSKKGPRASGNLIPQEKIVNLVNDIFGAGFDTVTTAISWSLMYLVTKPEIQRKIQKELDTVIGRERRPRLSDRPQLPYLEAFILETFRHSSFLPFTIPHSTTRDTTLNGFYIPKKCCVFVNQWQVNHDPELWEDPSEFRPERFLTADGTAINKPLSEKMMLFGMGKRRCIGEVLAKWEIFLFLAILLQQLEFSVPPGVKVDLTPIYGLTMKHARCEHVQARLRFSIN

The target of series [4] is T1, Heat shock factor protein 1. Briefly: inhibition of MG132-induced HSE-luciferase signal, confirmation, cell-based, NIH3T3, luminescence, dose retest (AID 2382).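 Further: NIH3T3 fibroblasts with HSF1-driven luciferase reporter stressed by proteasome inhibitor MG132; luminescence from HSF1-driven luciferase expression after 8 hours of MG132 stress.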 The series is classed as functional.
Series [5] is described as follows: inhibitors of intracellular T. cruzi replication, confirmation, NIH3T3 host cells, beta-gal luminescence (AID 2044).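 Further: intracellular parasites grown in NIH/3T3 mouse fibroblasts as host cells; luminescent beta-galactosidase reporter signal from transgenic T. cruzi replicating inside host cells; inhibitors lower the luminescence signal.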 The series is classed as functional, cell-based.
Series [6] can be described thus: cytotoxicity toward NIH3T3 fibroblasts, dose response, counter-screen, cell-based, ATP luminescence, mouse fibroblasts (AID 2010).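 Further: cells exposed to compound for about 90 hours before reading.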 In kind it is functional. Background: Counterscreens check selectivity or assay interference.
The nature of series [7]: Luminescence Cell-Based Dose Response HTS to Identify Inhibitors of 5'UTR Stem-Loop Driven Prion Protein mRNA Translation in H4 Neuroglioblastoma Cells. [Related pubchem assays: 1827 (Project Summary), 1813 (Primary HTS)]. The series is classed as functional.

Cytochrome P450 2C9, sequence (P11712 whole entry): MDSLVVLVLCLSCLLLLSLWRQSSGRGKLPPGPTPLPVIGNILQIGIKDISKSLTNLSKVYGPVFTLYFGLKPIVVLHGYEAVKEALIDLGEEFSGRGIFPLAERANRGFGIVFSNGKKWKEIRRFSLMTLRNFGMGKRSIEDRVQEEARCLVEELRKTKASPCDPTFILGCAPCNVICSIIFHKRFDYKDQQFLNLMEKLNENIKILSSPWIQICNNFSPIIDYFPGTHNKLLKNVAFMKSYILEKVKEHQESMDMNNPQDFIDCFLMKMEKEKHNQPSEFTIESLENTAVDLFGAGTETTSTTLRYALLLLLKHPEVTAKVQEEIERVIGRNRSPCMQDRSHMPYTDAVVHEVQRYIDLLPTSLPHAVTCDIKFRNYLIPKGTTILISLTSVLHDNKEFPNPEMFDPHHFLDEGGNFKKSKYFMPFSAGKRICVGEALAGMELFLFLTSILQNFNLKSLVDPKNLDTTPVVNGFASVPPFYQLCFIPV
Cytochrome P450 3A4, sequence (P08684 whole entry): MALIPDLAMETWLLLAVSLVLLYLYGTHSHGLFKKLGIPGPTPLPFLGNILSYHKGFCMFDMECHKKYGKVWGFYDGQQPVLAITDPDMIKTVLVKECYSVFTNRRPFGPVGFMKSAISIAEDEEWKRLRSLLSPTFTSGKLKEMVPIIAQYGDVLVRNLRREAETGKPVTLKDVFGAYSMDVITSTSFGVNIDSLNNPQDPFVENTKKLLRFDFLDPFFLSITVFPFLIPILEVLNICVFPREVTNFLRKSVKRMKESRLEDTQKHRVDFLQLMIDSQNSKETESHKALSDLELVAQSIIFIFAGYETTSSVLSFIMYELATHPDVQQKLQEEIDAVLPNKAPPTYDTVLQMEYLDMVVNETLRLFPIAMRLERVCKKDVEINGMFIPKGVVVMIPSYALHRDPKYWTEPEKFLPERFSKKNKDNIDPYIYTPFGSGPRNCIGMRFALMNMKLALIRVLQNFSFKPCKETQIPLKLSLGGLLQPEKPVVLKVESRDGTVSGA
Cytochrome P450 2D6, sequence (P10635 whole entry): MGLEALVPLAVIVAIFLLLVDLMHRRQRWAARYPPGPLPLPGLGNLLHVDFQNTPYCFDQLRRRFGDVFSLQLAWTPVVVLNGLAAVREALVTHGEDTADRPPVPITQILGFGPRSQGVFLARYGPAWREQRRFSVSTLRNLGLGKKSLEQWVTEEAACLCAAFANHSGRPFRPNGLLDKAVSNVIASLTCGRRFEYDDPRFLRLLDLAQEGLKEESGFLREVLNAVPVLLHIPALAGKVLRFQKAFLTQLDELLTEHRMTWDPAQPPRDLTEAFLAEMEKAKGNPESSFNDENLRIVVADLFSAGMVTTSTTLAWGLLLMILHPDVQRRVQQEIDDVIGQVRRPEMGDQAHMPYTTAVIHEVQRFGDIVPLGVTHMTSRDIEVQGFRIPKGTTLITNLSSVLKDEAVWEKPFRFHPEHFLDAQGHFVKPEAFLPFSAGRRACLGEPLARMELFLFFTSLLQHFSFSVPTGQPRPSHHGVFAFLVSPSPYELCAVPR
FAD-linked sulfhydryl oxidase ALR, sequence (P55789 whole entry): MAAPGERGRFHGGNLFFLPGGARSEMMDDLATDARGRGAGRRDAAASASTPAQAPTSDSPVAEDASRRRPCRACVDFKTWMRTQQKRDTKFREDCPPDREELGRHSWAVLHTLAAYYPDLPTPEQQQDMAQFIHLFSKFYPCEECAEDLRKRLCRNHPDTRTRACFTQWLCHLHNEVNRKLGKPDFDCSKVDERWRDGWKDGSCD

On to `CCC(=O)N(C)CCc1cc2c(c(OC)c1/C=N/Nc1ccc(C(=O)O)cc1)OCO2`, for which the AC50 in [1] was 3.56 µM (active).
With `CSc1ccc(C#N)cc1NC(=O)c1cccc(Cl)c1`, the half-maximal activity concentration (AC50) at Cytochrome P450 2C9 was 39.8 µM (inconclusive); on Cytochrome P450 2D6, 10 µM (inconclusive).
As to `CO[C@H]1OC[C@@]2(C)[C@@H]3C4=C(CN2C(=O)OC(C)(C)C)[C@H](C)[C@H](CO)[C@H](CO)[C@H]4CC[C@H]13`, the AC50 on Cytochrome P450 2C19 (read-out: AC50) was 39.8 µM (inconclusive); at Cytochrome P450 2C9, 20 µM (inconclusive); at Cytochrome P450 3A4, 10 µM (inconclusive).
On to `O=C(c1ccccc1)c1cccn1CC(=O)N1CCN(c2ccccc2)CC1`, for which the AC50 in [1] is 12.4 µM (active).
In the case of `CSCCC1NC(=O)N(CC(=O)N2N=C(c3ccc(Cl)cc3)CC2c2ccco2)C1=O` (stereo unspecified), in series [2], the CC50 was > 40 µM (active).
As for `O=C(O)c1ccc(/N=c2\oc3cc(O)ccc3cc2C(=O)NCc2ccccc2)cc1`, the AC50 in series [1] was 1.71 µM (active).
Take `Cc1nn(Cc2ccc(Cl)cc2)c(C)c1N`: in series [1], the AC50 was 28.5 µM (active).
With `Cc1ccc(NC(=NO)c2nonc2N)cc1`, the AC50 in series [1] was 19.3 µM (active).
As for `Cc1ccc(S(=O)(=O)NC2c3cccc4cccc(c34)C2Sc2nncn2C)cc1` (stereo unspecified), in [3], the EC50 is > 260 µM (inactive).
The same measure, in the same setting: the result for `O=C(COC(=O)C1CC2C=CC1C2)Nc1ccc2c(c1)OC(F)(F)O2` (stereo unspecified) reads > 260 µM (inactive); that for `CCOC(=O)C(=O)/C(C#N)=C/Nc1ccccc1`, 168 µM (active).
In the case of `CCC(C)NC(=O)c1c(C)cc(=O)oc1C` (stereo unspecified), the AC50 is 5.01 µM (inconclusive) on Cytochrome P450 2C9 and 28.2 µM (inconclusive) at Cytochrome P450 1A2.
Turning to `O=C(c1ccco1)N1CCN=C1SCc1cccc(Cl)c1`, the AC50 in series [1] is 18.1 µM (active).
Take `Oc1[nH]c2ccccc2c1C1=NCCCC1`: in [1], the AC50 was 0.325 µM (active).
Still for that read-out and setting: the result for `COc1ccc(OC)c(NC(=O)CCN2CCN(c3ccccc3)CC2)c1` reads 3.7 µM (active).
Turning to `CCOC(=O)C1=C(c2ccccc2)NC(SC)=C(C#N)C1c1ccco1` (stereo unspecified), the EC50 in [3] was > 260 µM (inactive).
For the compound `COc1ccc2[nH]c(C(=O)c3ccccc3)cc2c1`, the concentration at half-maximal activity (AC50) on Cytochrome P450 2C9 was 39.8 µM (inconclusive).
Turning to `Cc1cc(C)c2cc(CN(Cc3ccco3)C(S)=NCC3CCCO3)c(O)nc2c1` (stereo unspecified), the EC50 in [3] was > 260 µM (inactive).
On to `Cn1c(NCC(O)c2ccccc2)nc2c1c(=O)n(Cc1ccc(Cl)c(Cl)c1)c(=O)n2C` (stereo unspecified), for which the CC50 in [2] is 25.5 µM (active).
Turning to `OC(COc1c(F)cc(Br)cc1F)CN1CCN(c2ccc(F)cc2)CC1` (stereo unspecified), the EC50 in [4] is reported as > 195 µM (not active).
`O=C(COC(=O)C1(c2ccccc2F)CCCC1)N1CCc2ccccc21`: the EC50 in series [4] was > 195 µM (not active).
For `CCOC(=O)CSc1nc(O)c2cnn(-c3ccc(C)cc3)c2n1`, the AC50 entry is “inconclusive” on Cytochrome P450 2C19, 2.24 µM (inconclusive) on Cytochrome P450 2C9 and 3.16 µM (inconclusive) on Cytochrome P450 3A4.
For `CNC(=O)N(O)C1N(/N=C/c2c(F)cccc2Cl)C(=S)SC1(C)C` (stereo unspecified), the EC50 in series [3] was > 260 µM (inactive).
Consider `COc1ccc(NC(C)C(=O)Nc2ccc(C(C)(C)C)cc2)cc1Cl` (stereo unspecified), for which the CC50 in series [2] was > 40 µM (active).
Take `CN(c1ccccc1C(=O)N1CCN(c2ccccc2)CC1)S(C)(=O)=O`: the concentration at half-maximal activity (AC50) in series [1] is 2.93 µM (active).
`O=C(NCc1ccncc1)C(=O)Nc1nc(C23CC4CC(CC(C4)C2)C3)cs1`: the EC50 in [4] is > 195 µM (not active).
Take `C/C(=N\NC(=O)c1nnn(-c2nonc2N)c1C(C)C)c1ccncc1`: the EC50 in [4] was > 195 µM (not active).
With `COc1ccccc1C(CNC(=O)C(C)(C)Oc1ccc(Cl)cc1)N1CCCC1` (stereo unspecified), in [2], the CC50 was > 40 µM (active).
Turning to `Cc1ccc(/C=N\NC(=O)Cc2noc3ccccc23)cc1`, the EC50 in series [4] was > 195 µM (not active).
As for `O[C@@H]1C2CCCC1[C@]1(O)CCCCC1C2` (stereo partly specified), the EC50 in series [3] was > 260 µM (inactive).
Regarding `O=C(COc1ccc(Cl)cc1)NCCCNC(=O)c1ccccn1`, the EC50 in series [3] was > 260 µM (inactive).
Take `c1coc(CN2CCN(C(c3cccs3)c3nnnn3C3CCCC3)CC2)c1` (stereo unspecified): the half-maximal activity concentration (AC50) at Cytochrome P450 2C9 was 31.6 µM (inconclusive).
As to `CCOc1cc(-c2c(C#N)c(O)nc3c2c(C)nn3-c2ccc(F)cc2)ccc1O`, in [2], the CC50 is > 40 µM (active).
Take `CCCCN1C(=O)CN(CCc2ccccc2)C(=O)C1c1ccc(OC)cc1` (stereo unspecified): the AC50 at Cytochrome P450 2C9 is 20 µM (inconclusive); at Cytochrome P450 2D6 it was 39.8 µM (inconclusive).
On to `COc1cccc(N/C([S-])=C(/C(=O)c2cc(C)n(-c3ccccc3F)c2C)[n+]2ccc(N(C)C)cc2)c1`, for which the EC50 in series [5] was 645 nM (active); in series [6], > 60 µM (not active). For the same compound, the CC50 in [2] was > 40 µM (active).
As for `CCC(=O)c1ccc(OCC(O)CN2CCN(c3cccc(C(F)(F)F)c3)CC2)cc1` (stereo unspecified), in series [2], the CC50 was > 40 µM (active).
In the case of `O=C(NCc1ccc(F)cc1)C1CCN(S(=O)(=O)N2CCCCC2)CC1`, the AC50 at Cytochrome P450 2C19 (read-out: AC50) is 31.6 µM (inconclusive); at Cytochrome P450 2C9, 10 µM (inconclusive); on Cytochrome P450 3A4, 14.1 µM (inconclusive).
As to `Cc1cccc(N(C(=O)c2ccc(CN3CCOCC3)o2)C(C(=O)NC(C)(C)C)c2ccc(F)cc2)c1` (stereo unspecified), the EC50 in series [3] was > 260 µM (inactive).
On to `CCOC(=O)C1(C)NC(c2ccc(O)cc2)C2C(=O)N(c3ccccc3)C(=O)C21` (stereo unspecified), for which, in series [4], the half-maximal effective concentration (EC50) was 93.8 µM (active).
On to `CN(C)c1ccc(N=Nc2ccc(C(=O)O)cc2)cc1`, for which the EC50 is 11.8 µM (active) in series [7] and 1.68 µM (active) in [4].
Take `O=C(c1cc(C(F)(F)F)cc(C(F)(F)F)c1)N1CCC2(CCCN(c3ccncc3)C2)CC1`: the AC50 at Cytochrome P450 2C9 is 31.6 µM (inconclusive); on Cytochrome P450 2D6, 15.8 µM (inconclusive).
Consider `COC(=O)CCC(=O)C1=C(N)CC(C)(C)CC1=O`, for which the EC50 in series [3] was > 260 µM (inactive).
On to `CCN(CC)C(=S)SCC(=O)Nc1nc(=O)c2ccccc2s1`, for which the EC50 in series [4] was > 195 µM (not active).
As for `COc1cc(/C=N/NC(=O)c2ccc(CSc3nncn3C)cc2)cc(OC)c1O`, the AC50 in series [1] is 2.25 µM (active).
For `CSc1cccc(NC(=O)c2ccc(Cl)nc2)c1`, the AC50 is 25.1 µM (inconclusive) on Cytochrome P450 2C19 (read-out: AC50), 39.8 µM (inconclusive) at Cytochrome P450 2C9 and 14.1 µM (inconclusive) at Cytochrome P450 2D6.
Take `CCN1C/C(=C\c2cccc(C)c2)c2nc3ccccc3c(C(=O)O)c2C1`: the AC50 at Cytochrome P450 2C9 is 8.91 µM (inconclusive); at Cytochrome P450 3A4, 25.1 µM (inconclusive); at Cytochrome P450 2D6, 17.8 µM (inconclusive).
In the case of `O=S(=O)(c1ccccc1)N1CCC2(CCN(Cc3ccncc3)CC2)CC1`, the half-maximal activity concentration (AC50) on Cytochrome P450 2C9 and on Cytochrome P450 2D6 was 25.1 µM (inconclusive) each time.
Regarding `O=C(Nc1ccc(Oc2cccc(C(F)(F)F)c2)nc1)c1cccs1`, the CC50 in series [2] is > 40 µM (active).
